From patent US20230097157A1, “Bicyclic Pyridin-2-one and pyrimidin-4-one Derivatives Useful As a Factor XIa Inhibitors” (Janssen Pharmaceutica NV, priority 2021, published 2023)
Read-outs that look alike come from different tables or passages of the source.

Key:
Factor XIa = Factor XIa (Homo sapiens, UniProt P03951); test: Factor XIa inhibition assay (FLINT) utilizing a fluorophore-quencher pair peptide substrate 5Fam-[…]-K5Tamra; assay type: biochemical; details: kinetic (KIN) reads, read-out: FXIa KIN Inh IC50
How it was run: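 FXIa was preincubated with compound for 30 min at room temperature in Tris pH 7.5 buffer containing CaCl2, BSA and CHAPS, then reacted with 15 μM quenched 5Fam/Tamra peptide substrate. Fluorescence (485/520 nm) was read kinetically every 5 min for 30 min.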

human plasma kallikrein = human plasma kallikrein (Homo sapiens, UniProt P03952); test: Kallikrein inhibition assay (FLINT) utilizing a quenched AMC peptide substrate Z-Gly-Pro-Arg-AMC; assay type: biochemical; details: kinetic (KIN) reads, read-out: Kallikrein KIN Inh IC50
How it was run: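 Human plasma kallikrein (2 nM final) pre-incubated 30 min with compound (11-point 3-fold series, top 1 μM, 2% DMSO), then 50 μM Z-Gly-Pro-Arg-AMC added. Buffer 50 mM Tris pH 7.5, 100 mM NaCl, 5 mM CaCl2, BSA, CHAPS. AMC fluorescence (340/440 nm) read kinetically over 30 min at room temperature, IC50 by 4-parameter logistic fit.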

Sequence of human plasma kallikrein (P03952 391-638 limits assumed): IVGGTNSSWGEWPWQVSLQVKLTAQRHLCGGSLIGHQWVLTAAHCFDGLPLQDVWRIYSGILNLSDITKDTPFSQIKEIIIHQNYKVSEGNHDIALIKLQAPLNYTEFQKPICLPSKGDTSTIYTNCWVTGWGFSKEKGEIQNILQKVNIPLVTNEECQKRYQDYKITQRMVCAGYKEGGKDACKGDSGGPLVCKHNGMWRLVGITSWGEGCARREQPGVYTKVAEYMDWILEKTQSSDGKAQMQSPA
Sequence of human plasma kallikrein (P03952 20-390 partner limits assumed): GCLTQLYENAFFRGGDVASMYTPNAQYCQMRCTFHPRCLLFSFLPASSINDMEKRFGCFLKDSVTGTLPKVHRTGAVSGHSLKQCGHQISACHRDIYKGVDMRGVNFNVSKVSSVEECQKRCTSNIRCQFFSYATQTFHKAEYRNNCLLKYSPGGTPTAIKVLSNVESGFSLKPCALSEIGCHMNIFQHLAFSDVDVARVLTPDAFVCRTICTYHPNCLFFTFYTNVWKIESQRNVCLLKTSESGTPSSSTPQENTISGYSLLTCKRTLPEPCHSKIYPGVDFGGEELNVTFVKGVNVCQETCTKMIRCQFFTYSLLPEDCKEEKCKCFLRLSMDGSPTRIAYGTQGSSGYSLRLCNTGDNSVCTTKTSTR
Sequence of Factor XIa (P03951 388-625 limits assumed): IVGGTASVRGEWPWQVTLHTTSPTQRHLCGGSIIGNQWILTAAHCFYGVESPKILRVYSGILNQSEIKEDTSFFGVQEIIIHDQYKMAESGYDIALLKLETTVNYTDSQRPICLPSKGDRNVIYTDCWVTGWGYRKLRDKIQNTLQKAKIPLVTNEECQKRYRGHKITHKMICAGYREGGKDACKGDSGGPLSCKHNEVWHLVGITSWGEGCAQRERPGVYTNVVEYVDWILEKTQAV
Sequence of Factor XIa (P03951 19-387 partner limits assumed): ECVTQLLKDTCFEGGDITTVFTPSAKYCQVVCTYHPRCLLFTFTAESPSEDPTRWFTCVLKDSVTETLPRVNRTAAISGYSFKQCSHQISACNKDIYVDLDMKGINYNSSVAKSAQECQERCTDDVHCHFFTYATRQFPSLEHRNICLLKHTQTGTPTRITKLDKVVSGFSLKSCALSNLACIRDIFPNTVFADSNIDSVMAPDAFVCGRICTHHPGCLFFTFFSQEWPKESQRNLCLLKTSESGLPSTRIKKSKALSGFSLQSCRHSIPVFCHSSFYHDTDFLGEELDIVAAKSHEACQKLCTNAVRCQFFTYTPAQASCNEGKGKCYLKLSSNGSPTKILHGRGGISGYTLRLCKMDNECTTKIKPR

| IC50 (Factor XIa; values in nM) | IC50 (human plasma kallikrein; values in nM) | IC50 (Factor XIa; unit μM) | IC50 (human plasma kallikrein; unit μM) | SMILES |
| --- | --- | --- | --- | --- |
| 113 nM | 115 nM |  |  | COc1nccc(-c2cnc([C@H]3C[C@H](C)c4nc(-c5c(-n6cnnn6)ccc(Cl)c5F)cc(=O)n43)[nH]2)n1 (relative stereo) [Example 104, (6*R,8*S)-2-(3-Chloro-2-fluoro-6-(1H-tetrazol-1-yl)phenyl)-6-(5-(2-methoxypyrimidin-4-yl)-1H-imidazol-2-yl)-8-methyl-7,8-dihydropyrrolo[1,2-a]pyrimidin-4(6H)-one] |
| 18.3 nM | 345 nM |  |  | C[C@H]1C[C@@H](c2ncc(-c3ccc(N)nn3)[nH]2)n2c1cc(-c1c(-n3cnnn3)ccc(Cl)c1F)cc2=O (relative stereo) [Example 10, (1 S*,3S*)-3-(5-(6-Aminopyridazin-3-yl)-1H-imidazol-2-yl)-7-(3-chloro-2-fluoro-6-(1H-tetrazol-1-yl)phenyl)-1-methyl-2,3-dihydroindolizin-5(1H)-one] |
| 6.9 nM | 38 nM |  |  | O=c1cc(-c2c(-n3cnnn3)ccc(Cl)c2F)cc2n1[C@H](c1ncc(-c3ccnc(CO)c3F)[nH]1)CC21CC1 [Example 7, (S)-7′-(3-Chloro-2-fluoro-6-(1H-tetrazol-1-yl)phenyl)-3′-(5-(3-fluoro-2-(hydroxymethyl)pyridin-4-yl)-1H-imidazol-2-yl)-2′,3′-dihydro-5′H-spiro[cyclopropane-1,1′-indolizin]-5′-one] |
| 19.4 nM | 118 nM |  |  | O=c1cc(-c2c(-n3cnnn3)ccc(Cl)c2F)nc2n1C(c1nc(F)c(-c3ccnc(CO)c3F)[nH]1)CC21CC1 (racemic) [Example 69, 2′-(3-Chloro-2-fluoro-6-(1H-tetrazol-1-yl)phenyl)-6′-(4-fluoro-5-(3-fluoro-2-(hydroxymethyl)pyridin-4-yl)-1H-imidazol-2-yl)-6′,7′-dihydro-4′H-spiro[cyclopropane-1,8′-pyrrolo[1,2-a]pyrimidin]-4′-one] |
| 5.7 nM | 31.9 nM |  |  | COc1nc(N)cnc1-c1cnc([C@@H]2C[C@H](C)c3nc(-c4c(-n5cnnn5)ccc(Cl)c4F)cc(=O)n32)[nH]1 (relative stereo) [Example 84, (6*S,8*S)-6-(5-(5-Amino-3-methoxypyrazin-2-yl)-1H-imidazol-2-yl)-2-(3-chloro-2-fluoro-6-(1H-tetrazol-1-yl)phenyl)-8-methyl-7,8-dihydropyrrolo[1,2-a]pyrimidin-4(6H)-one] |
|  |  | 3000 nM | > 10000 nM | C[C@H]1C[C@@H](c2ncc(-c3ccc4nccn4c3)[nH]2)n2c1cc(-c1c(-n3cnnn3)ccc(Cl)c1F)cc2=O (stereo in doubt) [Example 48, (1S*,3S*)-7-(3-Chloro-2-fluoro-6-(1H-tetrazol-1-yl)phenyl)-3-(5-(imidazo[1,2-a]pyridin-6-yl)-1H-imidazol-2-yl)-1-methyl-2,3-dihydroindolizin-5(1H)-one] |
|  |  | > 10000 nM | > 10000 nM | Cc1nc(N)sc1-c1cnc([C@H]2CC3(CC3)c3nc(-c4c(-n5cnnn5)ccc(Cl)c4F)cc(=O)n32)[nH]1 [Example 132, (R)-6′-(5-(2-Amino-4-methylthiazol-5-yl)-1H-imidazol-2-yl)-2′-(3-chloro-2-fluoro-6-(1H-tetrazol-1-yl)phenyl)-6′,7′-dihydro-4′H-spiro[cyclopropane-1,8′-pyrrolo[1,2-a]pyrimidin]-4′-one] |
| 6.8 nM | 152 nM |  |  | Cc1c(-c2cnc([C@@H]3C[C@H](C)c4cc(-c5c(-n6cnnn6)ccc(Cl)c5F)cc(=O)n43)[nH]2)ccnc1C#N (relative stereo) [Example 33, 4-(2-((1S*,3S*)-7-(3-Chloro-2-fluoro-6-(1H-tetrazol-1-yl)phenyl)-1-methyl-5-oxo-1,2,3,5-tetrahydroindolizin-3-yl)-1H-imidazol-5-yl)-3-methylpicolinonitrile] |
| 6.9 nM | 7.6 nM |  |  | COc1cc(-c2cnc([C@H]3C[C@H](C)c4nc(-c5c(-n6cnnn6)ccc(Cl)c5F)cc(=O)n43)[nH]2)ccn1 (stereo in doubt) [Example 100, (6*R,8*S)-2-(3-Chloro-2-fluoro-6-(1H-tetrazol-1-yl)phenyl)-6-(5-(2-methoxypyridin-4-yl)-1H-imidazol-2-yl)-8-methyl-7,8-dihydropyrrolo[1,2-a]pyrimidin-4(6H)-one] |
